One assay relates to EAE. Put plainly: EAE induction and scoring (MOG35-55/CFA/PTX). In kind it is in vivo, mice. The following applies: wild type mice, 2 mg/kg (1 mg/kg i.p. and 1 mg/kg s.c.) 1 day prior to EAE induction and daily for 30 days, vs DMSO alone. An excerpt: Cd73^−/− mice have been previously described (Thompson et al., “Crucial Role for Ecto-5′-Nucleotidase (CD73) in Vascular Leakage During Hypoxia,” J. Exp. Med. 200:1395-1405 (2004), which is hereby incorporated by reference in its entirety) and have been backcrossed to C57BL/6 for 14 generations. Cd73^−/− mice have no overt susceptibility to infection and appear normal based on the size and cellular composition of their lymphoid organs and their T and B cell responses in in vivo and in vitro assays (Thompson et al., “Crucial Role for Ecto-5′-Nucleotidase (CD73) in Vascular Leakage During Hypoxia,” J. Exp. Med. 200:1395-1405 (2004), which is hereby incorporated by reference in its entirety). C57BL/6 and tcrα^−/− mice on the C57BL/6 background were purchased from The Jackson Laboratories. Mice were bred and housed under specific pathogen-free conditions at Cornell University or the University of Turku. For adenosine receptor blockade experiments, mice were given drinking water supplemented with 0.6 g/L of caffeine (Sigma) or 2 mg/kg SCH58261 (1 mg/kg s.c. and 1 mg/kg i.p.) in DMSO (45% vol. in PBS) or 45% DMSO alone starting 1 day before EAE induction and continuing throughout the experiment. All procedures performed on mice were approved by the relevant animal review committee.
EAE was induced by subjecting mice to the myelin oligodendrocyte glycoprotein (“MOG”) EAE-inducing regimen as described in Swanborg, “Experimental Autoimmune Encephalomyelitis in Rodents as a Model for Human Demyelinating Disease,” Clin. Immunol. Immunopathol. 77:4-13 (1995) and Bynoe et al., “Epicutaneous Immunization with Autoantigenic Peptides Induces T Suppressor Cells that Prevent Experimental Allergic Encephalomyelitis,” Immunity 19:317-328 (2003), which are hereby incorporated by reference in their entirety. […] Mice were scored daily for EAE based on disease symptom severity; 0=no disease, 0.5-1=weak/limp tail, 2=limp tail and partial hind limb paralysis, 3=total hind limb paralysis, 4=both hind limb and fore limb paralysis, 5=death. […]
As CD73 catalyzes the breakdown of AMP to adenosine and ARs are expressed in the CNS (Tsutsui et al., “A1 Adenosine Receptor Upregulation and Activation Attenuates Neuroinflammation and Demyelination in a Model of Multiple Sclerosis,” J. Neurosci. 24:1521-1529 (2004)); Rosi et al., The Influence of Brain Inflammation Upon Neuronal Adenosine A2B Receptors,” J. Neurochem. 86:220-227 (2003), which are hereby incorporated by reference in their entirety), it was next determined if AR signaling is important during EAE progression. […] Since CD73 is highly expressed on the choroid plexus (FIG. 6C), it was next determined if ARs are also expressed on the choroid plexus. […]

Another assay has as its system blood brain barrier. Put plainly: Entry of i.v. anti-β-amyloid antibody 6E10 into brain of transgenic AD (APP/PSEN) mice after NECA. In kind it is in vivo. The settings on record: NECA i.v. 3 h before 6E10 i.v., brains collected after 90 min. As to the method:
Wild type and transgenic (AD) mice were given 0.80 μg NECA (i.v.). After 3 h, 400 μg of antibody to β-amyloid (200 μl of 2 mg/ml; clone 6E10, Covance, Princeton, N.J.) was administered i.v. and the mice rested for 90 min. Mice were then anesthetized and perfused as described above and their brains were placed in OTC and flash-frozen for later sectioning. Sagital sections (6 μm) were fixed in acetone for 10 min, then washed in PBS. Sections were blocked with casein for 20 min then incubated with 1:50 dilution of goat anti-mouse IgCy5 (polyclonal, 1 mg/ml, Abcam, Cabridge, Mass.) for 20 min then washed 3 times in PBS. Sections were then dried and mounted with VectashieldHardset mounting media with DAPI (Vector Laboratories, Burlingame, Calif.). Images were obtained on a Zeiss Axio Imager M1 fluorescent microscope.
The most challenging therapeutic agents to get across the BBB are macromolecules such as antibodies, due to their enormous size (˜150 kDa). It was asked whether adenosine receptor modulation with NECA can facilitate the entry of antibodies into the CNS. To test this, a double [amyloid precursor protein (APP)/presenilin (PSEN)] transgenic mouse model of AD [strain B6.Cg-Tg(APPswe,PSEN1dE9)85Dbo/J] was used. […]

A further assay concerns Bend.3 cells. Put plainly: Tight junction molecule staining (ZO-1, Claudin-5, Occludin). It is filed as cell-based, mouse. The following applies: 1 μM, 1 h. As to the method:
Bend.3 cells grown on collagen coated coverslips were incubated with DMSO vehicle, NECA (1 μM), or Lexiscan (1 μM) for 1 h. Cells were washed with PBS, fixed with 4% paraformaldehyde, and permeabilized with 0.5% Triton-X in PBS. Cells were blocked with PBS/BSA/goat serum and then stained with antibodies (Invitrogen) against either ZO-1 (1A12), Claudin-5 (34-1600), or Occludin (3F10). Following a wash step, cells were incubated with either goat anti-rabbit IgTexas Red-X or goat anti-mouse IgCy5 (Invitrogen). Cover slips were washed and mounted on slides with ProlongGold containing DAPI. Images were obtained on a Zeiss Axio Imager M1 fluorescent microscope.

For the compound `Nc1nc2c(cnn2CCc2ccccc2)c2nc(-c3ccco3)nn12` [SCH58261, 2-(2-Furanyl)-7-(2-phenylethyl)-7H-pyrazolo[4,3-e][1,2,4]triazolo[1,5-c]pyrimidin-5-amine], in the assay with EAE, the EAE development result is given as “dramatically protected against EAE development”.
With `CCNC(=O)[C@H]1O[C@@H](n2cnc3c(N)ncnc32)[C@H](O)[C@@H]1O` [NECA, 5′-N-ethylcarboxamido adenosine], in the assay with blood brain barrier, the “binding of i.v. injected 6E10 antibody to Aβ plaques in brain” value was “Binding of 6E10 antibody to Aβ plaques was observed throughout the brains”. In addition, in the assay with Bend.3 cells, the “ZO-1 and claudin-5 expression” value was “discreet alterations in ZO-1 and claudin-5”; the occludin expression entry is “severely diminished occludin expression”.

(Values after patent US20130224110A1, “USE OF ADENOSINE RECEPTOR SIGNALING TO MODULATE PERMEABILITY OF BLOOD-BRAIN BARRIER” (CORNELL UNIVERSITY, priority 2010, published 2013).)
